Source: US20250041429A1, “COMPOUND HAVING BTK PROTEIN DEGRADATION ACTIVITY, AND MEDICAL USES THEREOF” (UBIX THERAPEUTICS, INC., priority 2021, published 2025)

Target: T1, BTK protein (Homo sapiens, UniProt Q06187)
T1 construct: endogenous in cells; host or cells: TMD-8 cells
Assay: Measurement of BTK protein degradation ability in TMD-8 cells (Western blotting)
Format: cell-based
Settings: harvested after 24 hours; for BTK degradation (%) 1 nM: compound 1 nM; for BTK degradation (%) 10 nM: compound 10 nM; for BTK degradation (%) 100 nM: compound 100 nM
Method in brief: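 TMD-8 cells (1×10^6/mL) were treated for 24 h with compound at 0.1, 1, 10 μM or 0.0001–0.1 μM, with DMSO as vehicle control. RIPA lysates were normalized by BCA assay. BTK was detected by Western blot with anti-BTK, using GAPDH or β-actin as loading controls, and imaged on LI-COR Odyssey.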

T1 sequence (Q06187 whole entry): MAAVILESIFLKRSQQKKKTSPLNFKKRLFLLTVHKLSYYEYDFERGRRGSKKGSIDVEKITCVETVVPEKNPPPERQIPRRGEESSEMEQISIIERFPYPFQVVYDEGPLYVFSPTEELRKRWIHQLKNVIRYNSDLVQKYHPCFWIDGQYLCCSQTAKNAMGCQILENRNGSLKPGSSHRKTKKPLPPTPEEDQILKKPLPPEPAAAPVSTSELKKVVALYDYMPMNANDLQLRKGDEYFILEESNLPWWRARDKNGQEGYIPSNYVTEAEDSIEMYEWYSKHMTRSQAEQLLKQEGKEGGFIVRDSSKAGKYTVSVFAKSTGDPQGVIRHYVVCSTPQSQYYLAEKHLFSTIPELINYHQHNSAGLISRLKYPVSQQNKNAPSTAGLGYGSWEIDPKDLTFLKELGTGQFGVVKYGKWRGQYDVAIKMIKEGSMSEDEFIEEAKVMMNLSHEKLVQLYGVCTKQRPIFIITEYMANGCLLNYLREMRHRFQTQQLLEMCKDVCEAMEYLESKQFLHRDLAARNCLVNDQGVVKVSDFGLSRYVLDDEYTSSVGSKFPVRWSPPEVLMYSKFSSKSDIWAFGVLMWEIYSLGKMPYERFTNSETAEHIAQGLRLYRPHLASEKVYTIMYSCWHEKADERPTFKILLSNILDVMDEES

Row | Structure (SMILES) | BTK degradation (%) 1 nM [%] | BTK degradation (%) 10 nM [%] | BTK degradation (%) 100 nM [%]
1 | Cc1cc(-c2ccnc(Nc3ccc(C4CCN(CC5CCN(c6ccc(OC7CCC(=O)NC7=O)cc6)CC5)CC4)cc3)n2)ccc1CNC(=O)c1cnn(C(C)C)c1 (stereo not drawn) [Example 49, N-(4-(2-((4-(1-((1-(4-((2,6-dioxopiperidin-3-yl)oxy)phenyl)piperidin-4-yl)methyl)piperidin-4-yl)phenyl)amino)pyrimidin-4-yl)-2-methylbenzyl)-1-isopropyl-1H-pyrazole-4-carboxamide] | 23.0 | 87.0 | 90.5
2 | Cc1cc(-c2ccnc(Nc3ccc(C4CCN(CC5CCN(c6ccc(OC7CCC(=O)NC7=O)cn6)CC5)CC4)cc3)n2)ccc1CNC(=O)N1CC(OC(C)C)C1 (stereo not drawn) [Example 51, N-(4-(2-((4-(1-((1-(5-((2,6-dioxopiperidin-3-yl)oxy)pyridin-2-yl)piperidin-4-yl)methyl)piperidin-4-yl)phenyl)amino)pyrimidin-4-yl)-2-methylbenzyl)-3-isopropoxyazetidine-1-carboxamide] | 24.0 | 86.7 | 99.3
3 | Cc1cc(-c2ccnc(Nc3ccc(N4CCN(CC5CCN(c6ccc(NC7CCC(=O)NC7=O)cn6)CC5)CC4)cc3)n2)ccc1CNC(=O)N1CC(OC(C)C)C1 (stereo not drawn) [Example 52, N-(4-(2-((4-(4-((1-(5-((2,6-dioxopiperidin-3-yl)amino)pyridin-2-yl)piperidin-4-yl)methyl)piperazin-1-yl)phenyl)amino)pyrimidin-4-yl)-2-methylbenzyl)-3-isopropoxyazetidine-1-carboxamide] | 24.0 | 92.0 | 99.3
4 | Cc1cc(-c2ccnc(Nc3ccc(C4CCN(CC5CCN(c6ccc(NC7CCC(=O)NC7=O)cn6)CC5)CC4)cc3)n2)ccc1CNC(=O)N1CC(OC(C)C)C1 (stereo not drawn) [Example 53, N-(4-(2-((4-(1-((1-(5-((2,6-dioxopiperidin-3-yl)amino)pyridin-2-yl)piperidin-4-yl)methyl)piperidin-4-yl)phenyl)amino)pyrimidin-4-yl)-2-methylbenzyl)-3-isopropoxyazetidine-1-carboxamide] | 13.3 | 86.7 | 99.3
5 | Cc1cc(-c2ccnc(Nc3ccc(C4CCN(CC5CCN(c6ccc(NC7CCC(=O)NC7=O)cc6)CC5)CC4)cc3)n2)ccc1CNC(=O)N1CC(OC(C)C)C1 (stereo not drawn) [Example 56, N-(4-(2-((4-(1-((1-(4-((2,6-dioxopiperidin-3-yl)amino)phenyl)piperidin-4-yl)methyl)piperidin-4-yl)phenyl)amino)pyrimidin-4-yl)-2-methylbenzyl)-3-isopropoxyazetidine-1-carboxamide] | 13.7 | 91.3 | 99.7
6 | Cc1cc(-c2ccnc(Nc3ccc(N4CCN(CC5CCN(c6ccc(NC7CCC(=O)NC7=O)cn6)CC5)CC4)cc3)n2)ccc1CNC(=O)c1cnn(C(C)C)c1 (stereo not drawn) [Example 58, N-(4-(2-((4-(4-((1-(5-((2,6-dioxopiperidin-3-yl)amino)pyridin-2-yl)piperidin-4-yl)methyl)piperazin-1-yl)phenyl)amino)pyrimidin-4-yl)-2-methylbenzyl)-1-isopropyl-1H-pyrazole-4-carboxamide] | 62.0 | 97.5 | 99.0
7 | Cc1cc(-c2ccnc(Nc3ccc(N4CCN(CC5CCN(c6cccc(NC7CCC(=O)NC7=O)c6)CC5)CC4)cc3)n2)ccc1CNC(=O)c1cnn(C(C)(C)C)c1 (stereo not drawn) [Example 59, 1-(tert-butyl)-N-(4-(2-((4-(4-((1-(3-((2,6-dioxopiperidin-3-yl)amino)phenyl)piperidin-4-yl)methyl)piperazin-1-yl)phenyl)amino)pyrimidin-4-yl)-2-methylbenzyl)-1H-pyrazole-4-carboxamide] | 72.0 | 97.0 | 99.0

Further lines, results first:

Row | BTK degradation (%) 1 nM [%] | BTK degradation (%) 10 nM [%] | BTK degradation (%) 100 nM [%] | Structure (SMILES)
8 | 19.7 | 82.0 | 99.3 | Cc1cc(-c2ccnc(Nc3ccc(N4CCN(CC5CCN(c6ccc(OC7CCC(=O)NC7=O)cn6)CC5)CC4)cc3)n2)ccc1CNC(=O)N1CC(OC(C)C)C1 (stereo not drawn) [Example 50, N-(4-(2-((4-(4-((1-(5-((2,6-dioxopiperidin-3-yl)oxy)pyridin-2-yl)piperidin-4-yl)methyl)piperazin-1-yl)phenyl)amino)pyrimidin-4-yl)-2-methylbenzyl)-3-isopropoxyazetidine-1-carboxamide]
9 | 38.7 | 95.0 | 99.7 | Cc1cc(-c2ccnc(Nc3ccc(N4CCN(CC5CCN(c6cccc(NC7CCC(=O)NC7=O)c6)CC5)CC4)cc3)n2)ccc1CNC(=O)N1CC(OC(C)C)C1 (stereo not drawn) [Example 54, N-(4-(2-((4-(4-((1-(3-((2,6-dioxopiperidin-3-yl)amino)phenyl)piperidin-4-yl)methyl)piperazin-1-yl)phenyl)amino)pyrimidin-4-yl)-2-methylbenzyl)-3-isopropoxyazetidine-1-carboxamide]
10 | 37.7 | 94.7 | 99.7 | Cc1cc(-c2ccnc(Nc3ccc(N4CCN(CC5CCN(c6ccc(NC7CCC(=O)NC7=O)cc6)CC5)CC4)cc3)n2)ccc1CNC(=O)N1CC(OC(C)C)C1 (stereo not drawn) [Example 55, N-(4-(2-((4-(4-((1-(4-((2,6-dioxopiperidin-3-yl)amino)phenyl)piperidin-4-yl)methyl)piperazin-1-yl)phenyl)amino)pyrimidin-4-yl)-2-methylbenzyl)-3-isopropoxyazetidine-1-carboxamide]
11 | 54.0 | 95.0 | 99.5 | Cc1cc(-c2ccnc(Nc3ccc(N4CCN(CC5CCN(c6cccc(NC7CCC(=O)NC7=O)c6)CC5)CC4)cc3)n2)ccc1CNC(=O)c1cnn(C(C)C)c1 (stereo not drawn) [Example 57, N-(4-(2-((4-(4-((1-(3-((2,6-dioxopiperidin-3-yl)amino)phenyl)piperidin-4-yl)methyl)piperazin-1-yl)phenyl)amino)pyrimidin-4-yl)-2-methylbenzyl)-1-isopropyl-1H-pyrazole-4-carboxamide]
12 | 58.0 | 96.5 | 99.5 | Cc1cc(-c2ccnc(Nc3ccc(N4CCN(CC5CCN(c6ccc(NC7CCC(=O)NC7=O)cn6)CC5)CC4)cc3)n2)ccc1CNC(=O)c1cnn(C(C)(C)C)c1 (stereo not drawn) [Example 60, 1-(tert-butyl)-N-(4-(2-((4-(4-((1-(5-((2,6-dioxopiperidin-3-yl)amino)pyridin-2-yl)piperidin-4-yl)methyl)piperazin-1-yl)phenyl)amino)pyrimidin-4-yl)-2-methylbenzyl)-1H-pyrazole-4-carboxamide]
